Measurements as given in PubChem BioAssay AID248 (DTP/NCI, 2004).
Where “and” joins values, the source holds several entries; their conditions need not be identical. Identical values can stand only once. Toxic doses and inconclusive results are not listed. Rule as the data show it: active = T/C of 150% or more; inactive = T/C below 125%.

Tested on: L1210 leukemia ip in BDF1 mice, survival T/C
Experiment: NCI In Vivo Anticancer Drug Screen. Data for tumor model L1210 Leukemia (intraperitoneal) in B6D2F1 (BDF1) mice
Settings: endpoint: mean survival time, higher = longer survival
Method in brief: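 Value reflects the ratio of survival in compound-treated mice to survival in vehicle-treated controls, with both groups carrying the same transplanted tumor.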

[1] = dose: 100.0 mg/kg/injection, schedule: Q04DX003 (ip), vehicle: saline
[2] = dose: 200.0 mg/kg/injection, schedule: Q04DX003 (ip), vehicle: saline

Measured: T/C

Clc1cccc(N=C/C=C/c2ccccc2)c1
inactive: dose: 100.0 mg/kg/injection, schedule: Q01DX001 (ip), vehicle: carboxymethylcellulose (CMC) 105 % of control | dose: 100.0 mg/kg/injection, schedule: Q01DX009 (ip), vehicle: carboxymethylcellulose (CMC) 96 % of control and 100 % of control | dose: 100.0 mg/kg/injection, schedule: Q04DX002 (ip), vehicle: carboxymethylcellulose (CMC) 94 % of control and 100 % of control | dose: 100.0 mg/kg/injection, schedule: Q04DX003 (ip), vehicle: carboxymethylcellulose (CMC) 92 % of control | dose: 200.0 mg/kg/injection, schedule: Q01DX001 (ip), vehicle: carboxymethylcellulose (CMC) 96 % of control | dose: 200.0 mg/kg/injection, schedule: Q01DX009 (ip), vehicle: carboxymethylcellulose (CMC) 107 % of control and 92 % of control | dose: 200.0 mg/kg/injection, schedule: Q04DX002 (ip), vehicle: carboxymethylcellulose (CMC) 95 % of control and 97 % of control | dose: 200.0 mg/kg/injection, schedule: Q04DX003 (ip), vehicle: carboxymethylcellulose (CMC) 96 % of control | dose: 400.0 mg/kg/injection, schedule: Q01DX001 (ip), vehicle: carboxymethylcellulose (CMC) 102 % of control | dose: 400.0 mg/kg/injection, schedule: Q01DX009 (ip), vehicle: carboxymethylcellulose (CMC) 103 % of control | dose: 400.0 mg/kg/injection, schedule: Q04DX002 (ip), vehicle: carboxymethylcellulose (CMC) 94 % of control and 98 % of control | dose: 400.0 mg/kg/injection, schedule: Q04DX003 (ip), vehicle: carboxymethylcellulose (CMC) 107 % of control

Fc1ccc(C(c2ccc(F)cc2)C(Cl)Cl)cc1
inactive: dose: 100.0 mg/kg/injection, schedule: Q01DX009 (ip), vehicle: saline with Tween-80 95 % of control | dose: 200.0 mg/kg/injection, schedule: Q01DX009 (ip), vehicle: saline with Tween-80 97 % of control | dose: 400.0 mg/kg/injection, schedule: Q01DX009 (ip), vehicle: saline with Tween-80 93 % of control

CN(C)P(=O)(Oc1c(Cl)c(Cl)c(Cl)c(Cl)c1Cl)Oc1c(Cl)c(Cl)c(Cl)c(Cl)c1Cl
inactive: dose: 100.0 mg/kg/injection, schedule: Q04DX002 (ip), vehicle: saline with Tween-80 107 % of control | dose: 200.0 mg/kg/injection, schedule: Q04DX002 (ip), vehicle: saline with Tween-80 110 % of control | dose: 400.0 mg/kg/injection, schedule: Q04DX002 (ip), vehicle: saline with Tween-80 93 % of control

NNC(=O)c1ccncc1
inactive: dose: 12.5 mg/kg/injection, schedule: Q01DX009 (ip), vehicle: saline 98 % of control | dose: 19.25 mg/kg/injection, schedule: Q01DX Z (ip), vehicle: carboxymethylcellulose (CMC) 103 % of control | dose: 25.0 mg/kg/injection, schedule: Q01DX009 (ip), vehicle: saline 107 % of control | dose: 25.0 mg/kg/injection, schedule: Q04DX003 (ip), vehicle: saline 108 % of control | dose: 38.5 mg/kg/injection, schedule: Q01DX Z (ip), vehicle: carboxymethylcellulose (CMC) 93 % of control | dose: 50.0 mg/kg/injection, schedule: Q01DX009 (ip), vehicle: saline 104 % of control | dose: 50.0 mg/kg/injection, schedule: Q04DX003 (ip), vehicle: saline 101 % of control | dose: 77.0 mg/kg/injection, schedule: Q01DX Z (ip), vehicle: carboxymethylcellulose (CMC) 106 % of control | dose: 100.0 mg/kg/injection, schedule: Q01DX001 (ip), vehicle: saline 98 % of control | dose: 100.0 mg/kg/injection, schedule: Q01DX009 (ip), vehicle: saline 100 % of control | [1] 101 % of control | dose: 154.0 mg/kg/injection, schedule: Q01DX Z (ip), vehicle: carboxymethylcellulose (CMC) 108 % of control | [2] 86 % of control

CCOC(=O)c1cnc2ccc(OC)cc2c1
inactive: dose: 50.0 mg/kg/injection, schedule: Q01DX009 (ip), vehicle: saline + alcohol 111 % of control | dose: 100.0 mg/kg/injection, schedule: Q01DX009 (ip), vehicle: saline + alcohol 93 % of control | [1] 96 % of control | dose: 200.0 mg/kg/injection, schedule: Q01DX009 (ip), vehicle: saline + alcohol 98 % of control | [2] 105 % of control | dose: 400.0 mg/kg/injection, schedule: Q01DX009 (ip), vehicle: saline + alcohol 93 % of control | dose: 400.0 mg/kg/injection, schedule: Q04DX003 (ip), vehicle: saline 94 % of control
